Results reported in ChEMBL document CHEMBL1201862, “PubChem BioAssay data set” (2004).
The source made the active and inactive calls.

Legend:
[1] = biological target: Glycogen synthase kinase-3 beta (Homo sapiens, UniProt P49841); format: functional;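 also: value comes from a broad kinome profiling panel, with GSK3B as the panel member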
[2] = biological target: cAMP-dependent protein kinase catalytic subunit alpha (Homo sapiens, UniProt P17612); format: functional
[3] = biological target: Interleukin-1 receptor-associated kinase 4 (Homo sapiens, UniProt Q9NWZ3); format: functional
[4] = biological target: Cell division cycle 7-related protein kinase (Homo sapiens, UniProt O00311); format: functional;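 also: value obtained from a kinome-wide kinase panel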
[5] = biological target: Serine/threonine-protein kinase pim-1 (Homo sapiens, UniProt P11309); format: functional
[6] = biological target: Dual specificity protein kinase CLK4 (Homo sapiens, UniProt Q9HAZ1); format: functional
[7] = biological target: Mitogen-activated protein kinase kinase kinase kinase 4 (Homo sapiens, UniProt O95819); format: functional
[8] = biological target: Homeodomain-interacting protein kinase 2 (Homo sapiens, UniProt Q9H2X6); format: functional;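 also: measured within a kinome-wide kinase profiling panel, HIPK2 being one panel member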
[9] = biological target: Botulinum neurotoxin type F (Clostridium botulinum, UniProt P30996); experiment: High-throughput multiplex microsphere dose response for inhibitors of toxin protease, specifically Botulinum neurotoxin light chain F protease, compounds from Cherry Pick 02.; format: functional; settings: read-out: EC50_MICROM
[10] = biological target: Botulinum neurotoxin type A (Clostridium botulinum (strain Hall / ATCC 3502 / NCTC 13319 / Type A), UniProt P0DPI1); experiment: High-throughput multiplex microsphere dose response for inhibitors of toxin protease, specifically Botulinum neurotoxin light chain A protease, compounds from Cherry Pick 02.; format: functional; settings: read-out: EC50_MICROM
[11] = biological target: Nonstructural protein 1 (Influenza A virus, UniProt Q194T2); format: functional, Influenza A virus (A/California/07/2009(H1N1))
[12] = biological target: Lethal factor (Bacillus anthracis, UniProt P15917); experiment: High-throughput multiplex microsphere dose response for inhibitors of toxin protease, specifically Lethal Factor protease, compounds from Cherry Pick 02.; format: functional; settings: read-out: EC50_MICROM
[13] = biological target: T1, Rac GTPase-activating protein 1 (Homo sapiens, UniProt Q9H0H5); experiment: MgcRacGAP GTPase-activating activity inhibitors, confirmation, biochemical, ADP Hunter fluorescence, primary and confirmatory (AID 624330); format: functional
T1 sequence (Q9H0H5 whole entry): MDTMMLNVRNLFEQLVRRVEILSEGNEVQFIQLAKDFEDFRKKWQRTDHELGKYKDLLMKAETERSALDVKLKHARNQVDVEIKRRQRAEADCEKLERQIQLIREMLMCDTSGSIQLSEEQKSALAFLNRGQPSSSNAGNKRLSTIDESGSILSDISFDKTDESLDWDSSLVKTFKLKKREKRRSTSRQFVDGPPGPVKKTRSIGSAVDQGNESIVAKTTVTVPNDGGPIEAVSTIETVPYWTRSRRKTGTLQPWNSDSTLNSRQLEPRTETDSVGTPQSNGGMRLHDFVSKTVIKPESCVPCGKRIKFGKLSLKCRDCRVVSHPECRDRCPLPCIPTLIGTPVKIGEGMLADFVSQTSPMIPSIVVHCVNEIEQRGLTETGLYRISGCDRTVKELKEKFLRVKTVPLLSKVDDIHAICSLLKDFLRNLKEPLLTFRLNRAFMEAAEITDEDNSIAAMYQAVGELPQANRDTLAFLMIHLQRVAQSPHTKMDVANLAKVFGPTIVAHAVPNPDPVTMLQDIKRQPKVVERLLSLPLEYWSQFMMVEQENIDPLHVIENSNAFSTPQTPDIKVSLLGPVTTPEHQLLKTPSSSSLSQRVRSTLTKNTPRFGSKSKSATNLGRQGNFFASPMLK

[14] = biological target: T2, Histone-lysine N-methyltransferase NSD2 (Homo sapiens, UniProt O96028); format: biochemical
T2 sequence (O96028 whole entry): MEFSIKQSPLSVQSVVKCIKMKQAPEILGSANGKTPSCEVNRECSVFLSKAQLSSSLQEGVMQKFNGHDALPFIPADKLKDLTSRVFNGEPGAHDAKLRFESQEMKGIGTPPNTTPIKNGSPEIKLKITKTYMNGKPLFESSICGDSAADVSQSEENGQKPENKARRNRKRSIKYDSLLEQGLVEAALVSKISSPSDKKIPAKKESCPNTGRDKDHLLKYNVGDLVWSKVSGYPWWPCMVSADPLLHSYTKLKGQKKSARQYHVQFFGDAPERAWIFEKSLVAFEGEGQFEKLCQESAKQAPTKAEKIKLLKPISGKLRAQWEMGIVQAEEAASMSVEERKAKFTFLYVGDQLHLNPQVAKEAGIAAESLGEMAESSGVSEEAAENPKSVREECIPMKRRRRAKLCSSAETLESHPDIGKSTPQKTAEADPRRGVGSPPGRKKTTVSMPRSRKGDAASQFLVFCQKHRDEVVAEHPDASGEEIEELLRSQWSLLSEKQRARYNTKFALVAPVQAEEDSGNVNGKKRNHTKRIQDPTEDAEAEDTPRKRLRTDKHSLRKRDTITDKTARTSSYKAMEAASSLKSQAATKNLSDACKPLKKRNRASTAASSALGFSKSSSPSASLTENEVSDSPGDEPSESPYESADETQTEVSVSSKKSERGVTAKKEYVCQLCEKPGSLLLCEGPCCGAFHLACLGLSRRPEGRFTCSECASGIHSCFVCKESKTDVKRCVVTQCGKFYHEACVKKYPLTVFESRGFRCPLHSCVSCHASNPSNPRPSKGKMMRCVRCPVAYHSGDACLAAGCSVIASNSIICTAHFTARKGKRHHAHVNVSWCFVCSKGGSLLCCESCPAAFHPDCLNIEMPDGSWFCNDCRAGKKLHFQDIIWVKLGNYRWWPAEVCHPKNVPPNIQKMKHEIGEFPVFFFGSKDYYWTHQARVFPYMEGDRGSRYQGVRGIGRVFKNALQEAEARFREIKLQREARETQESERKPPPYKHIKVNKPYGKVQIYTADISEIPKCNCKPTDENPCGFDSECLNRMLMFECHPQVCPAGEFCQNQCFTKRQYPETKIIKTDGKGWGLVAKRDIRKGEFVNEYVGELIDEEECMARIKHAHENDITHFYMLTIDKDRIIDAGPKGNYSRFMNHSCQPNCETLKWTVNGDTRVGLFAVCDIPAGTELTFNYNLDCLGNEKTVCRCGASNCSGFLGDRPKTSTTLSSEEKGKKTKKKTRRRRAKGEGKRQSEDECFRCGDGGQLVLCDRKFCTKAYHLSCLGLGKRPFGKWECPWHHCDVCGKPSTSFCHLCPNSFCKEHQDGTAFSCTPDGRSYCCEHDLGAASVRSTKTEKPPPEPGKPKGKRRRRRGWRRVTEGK

[15] = HeLa cell cytotoxicity, dose response, cytotoxicity control for MgcRacGAP inhibitor project (AID 624300); format: functional

Glycogen synthase kinase-3 beta, sequence (P49841 whole entry): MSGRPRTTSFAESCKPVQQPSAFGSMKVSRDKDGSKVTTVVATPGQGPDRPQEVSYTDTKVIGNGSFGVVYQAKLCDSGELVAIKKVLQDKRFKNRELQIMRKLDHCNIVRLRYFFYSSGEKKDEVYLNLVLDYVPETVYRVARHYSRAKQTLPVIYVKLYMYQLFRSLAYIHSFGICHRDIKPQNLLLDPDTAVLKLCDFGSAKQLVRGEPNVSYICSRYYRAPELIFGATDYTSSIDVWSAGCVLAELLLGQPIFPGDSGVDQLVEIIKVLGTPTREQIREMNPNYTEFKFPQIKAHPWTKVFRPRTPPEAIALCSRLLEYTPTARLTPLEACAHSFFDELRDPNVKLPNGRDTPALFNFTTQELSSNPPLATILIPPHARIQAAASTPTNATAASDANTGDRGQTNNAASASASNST
Botulinum neurotoxin type A, sequence (P0DPI1 2-448 limits assumed): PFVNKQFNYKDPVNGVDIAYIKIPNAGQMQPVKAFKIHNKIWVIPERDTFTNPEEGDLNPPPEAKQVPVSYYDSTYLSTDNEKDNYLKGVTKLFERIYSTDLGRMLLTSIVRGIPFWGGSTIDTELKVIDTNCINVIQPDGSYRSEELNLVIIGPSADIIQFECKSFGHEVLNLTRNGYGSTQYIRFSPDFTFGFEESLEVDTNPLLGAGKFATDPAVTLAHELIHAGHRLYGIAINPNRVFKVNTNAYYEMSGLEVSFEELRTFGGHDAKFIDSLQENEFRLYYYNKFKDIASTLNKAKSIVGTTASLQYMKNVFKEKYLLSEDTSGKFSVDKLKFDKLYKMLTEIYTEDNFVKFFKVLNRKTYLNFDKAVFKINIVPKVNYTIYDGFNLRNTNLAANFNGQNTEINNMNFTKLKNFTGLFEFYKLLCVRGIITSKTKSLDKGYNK
Botulinum neurotoxin type F, sequence (P30996 1-436 limits assumed): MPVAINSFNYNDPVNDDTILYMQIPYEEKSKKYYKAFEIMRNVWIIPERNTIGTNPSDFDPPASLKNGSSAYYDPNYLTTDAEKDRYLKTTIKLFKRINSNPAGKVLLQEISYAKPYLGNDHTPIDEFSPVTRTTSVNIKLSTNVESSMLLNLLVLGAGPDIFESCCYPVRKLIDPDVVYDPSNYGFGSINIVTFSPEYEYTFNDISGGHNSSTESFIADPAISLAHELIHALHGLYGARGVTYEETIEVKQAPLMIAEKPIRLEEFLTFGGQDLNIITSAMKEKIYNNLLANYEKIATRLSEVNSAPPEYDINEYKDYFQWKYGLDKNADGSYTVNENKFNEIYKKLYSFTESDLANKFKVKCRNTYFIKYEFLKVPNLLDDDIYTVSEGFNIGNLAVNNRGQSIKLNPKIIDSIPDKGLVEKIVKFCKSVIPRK
Nonstructural protein 1, sequence (Q194T2 whole entry): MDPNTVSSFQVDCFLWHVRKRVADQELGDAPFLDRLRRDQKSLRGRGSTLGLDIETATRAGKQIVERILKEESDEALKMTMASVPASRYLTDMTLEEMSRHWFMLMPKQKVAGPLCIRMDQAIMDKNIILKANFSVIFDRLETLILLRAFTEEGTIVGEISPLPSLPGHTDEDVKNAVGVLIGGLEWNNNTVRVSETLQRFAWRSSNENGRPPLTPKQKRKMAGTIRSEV
Serine/threonine-protein kinase pim-1, sequence (P11309 whole entry): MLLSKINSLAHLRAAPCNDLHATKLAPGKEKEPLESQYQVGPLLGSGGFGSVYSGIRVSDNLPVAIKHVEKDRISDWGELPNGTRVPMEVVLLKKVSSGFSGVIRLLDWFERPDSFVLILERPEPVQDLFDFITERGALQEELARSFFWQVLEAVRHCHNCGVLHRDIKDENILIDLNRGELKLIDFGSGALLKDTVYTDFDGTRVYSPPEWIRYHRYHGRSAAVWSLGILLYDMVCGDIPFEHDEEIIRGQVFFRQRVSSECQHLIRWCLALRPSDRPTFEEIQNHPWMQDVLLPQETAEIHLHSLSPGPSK
Homeodomain-interacting protein kinase 2, sequence (Q9H2X6 whole entry): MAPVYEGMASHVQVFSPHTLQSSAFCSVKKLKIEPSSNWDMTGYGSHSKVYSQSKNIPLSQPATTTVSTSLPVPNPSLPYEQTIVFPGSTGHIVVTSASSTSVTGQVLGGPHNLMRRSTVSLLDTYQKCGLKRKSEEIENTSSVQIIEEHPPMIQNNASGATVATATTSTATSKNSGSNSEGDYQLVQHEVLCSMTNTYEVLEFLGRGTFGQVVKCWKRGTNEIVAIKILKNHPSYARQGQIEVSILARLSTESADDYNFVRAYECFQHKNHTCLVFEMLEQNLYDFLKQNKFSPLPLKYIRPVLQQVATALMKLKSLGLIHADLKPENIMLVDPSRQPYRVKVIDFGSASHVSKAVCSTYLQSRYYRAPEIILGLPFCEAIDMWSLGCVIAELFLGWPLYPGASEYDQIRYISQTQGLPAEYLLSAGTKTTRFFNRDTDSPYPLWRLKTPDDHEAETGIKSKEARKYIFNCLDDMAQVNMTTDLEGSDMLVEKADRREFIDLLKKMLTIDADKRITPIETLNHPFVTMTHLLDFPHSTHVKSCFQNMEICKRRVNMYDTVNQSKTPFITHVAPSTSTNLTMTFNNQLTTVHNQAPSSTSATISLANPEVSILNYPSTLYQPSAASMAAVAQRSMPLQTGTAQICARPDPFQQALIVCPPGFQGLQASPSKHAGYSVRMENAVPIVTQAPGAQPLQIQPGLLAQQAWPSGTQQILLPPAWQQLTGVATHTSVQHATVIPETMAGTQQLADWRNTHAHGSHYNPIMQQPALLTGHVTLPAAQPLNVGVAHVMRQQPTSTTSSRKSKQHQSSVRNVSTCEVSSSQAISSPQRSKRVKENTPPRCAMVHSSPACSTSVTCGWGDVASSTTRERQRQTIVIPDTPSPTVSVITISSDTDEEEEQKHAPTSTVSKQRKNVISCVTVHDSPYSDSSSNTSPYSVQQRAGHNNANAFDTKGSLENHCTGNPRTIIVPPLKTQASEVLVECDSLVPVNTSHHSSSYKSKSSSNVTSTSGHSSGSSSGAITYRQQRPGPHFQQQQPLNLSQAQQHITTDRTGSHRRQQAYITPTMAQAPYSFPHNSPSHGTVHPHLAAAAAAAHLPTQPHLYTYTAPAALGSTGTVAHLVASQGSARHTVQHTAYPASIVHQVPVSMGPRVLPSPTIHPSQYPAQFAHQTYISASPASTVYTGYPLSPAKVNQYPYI
Lethal factor, sequence (P15917 whole entry): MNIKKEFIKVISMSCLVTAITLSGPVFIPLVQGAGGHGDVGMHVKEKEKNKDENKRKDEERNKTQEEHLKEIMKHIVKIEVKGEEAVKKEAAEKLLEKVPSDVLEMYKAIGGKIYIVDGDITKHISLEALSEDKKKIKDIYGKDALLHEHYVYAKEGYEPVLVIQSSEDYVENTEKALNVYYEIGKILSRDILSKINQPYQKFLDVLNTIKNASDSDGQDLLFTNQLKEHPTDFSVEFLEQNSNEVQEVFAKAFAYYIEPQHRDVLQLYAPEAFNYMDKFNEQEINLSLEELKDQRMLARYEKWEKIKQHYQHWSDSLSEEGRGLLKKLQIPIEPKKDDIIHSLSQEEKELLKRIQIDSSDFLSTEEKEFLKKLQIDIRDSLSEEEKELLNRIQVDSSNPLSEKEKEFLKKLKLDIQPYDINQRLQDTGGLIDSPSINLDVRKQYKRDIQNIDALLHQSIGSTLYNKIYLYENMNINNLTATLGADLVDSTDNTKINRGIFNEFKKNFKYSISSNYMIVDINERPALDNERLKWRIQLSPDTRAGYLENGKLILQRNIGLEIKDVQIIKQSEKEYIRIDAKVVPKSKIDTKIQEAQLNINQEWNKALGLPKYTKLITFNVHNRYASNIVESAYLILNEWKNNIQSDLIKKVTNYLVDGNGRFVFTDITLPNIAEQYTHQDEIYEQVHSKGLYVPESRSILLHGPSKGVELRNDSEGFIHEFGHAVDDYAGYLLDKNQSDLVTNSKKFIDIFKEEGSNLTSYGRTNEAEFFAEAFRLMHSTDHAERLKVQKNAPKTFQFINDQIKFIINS
Dual specificity protein kinase CLK4, sequence (Q9HAZ1 whole entry): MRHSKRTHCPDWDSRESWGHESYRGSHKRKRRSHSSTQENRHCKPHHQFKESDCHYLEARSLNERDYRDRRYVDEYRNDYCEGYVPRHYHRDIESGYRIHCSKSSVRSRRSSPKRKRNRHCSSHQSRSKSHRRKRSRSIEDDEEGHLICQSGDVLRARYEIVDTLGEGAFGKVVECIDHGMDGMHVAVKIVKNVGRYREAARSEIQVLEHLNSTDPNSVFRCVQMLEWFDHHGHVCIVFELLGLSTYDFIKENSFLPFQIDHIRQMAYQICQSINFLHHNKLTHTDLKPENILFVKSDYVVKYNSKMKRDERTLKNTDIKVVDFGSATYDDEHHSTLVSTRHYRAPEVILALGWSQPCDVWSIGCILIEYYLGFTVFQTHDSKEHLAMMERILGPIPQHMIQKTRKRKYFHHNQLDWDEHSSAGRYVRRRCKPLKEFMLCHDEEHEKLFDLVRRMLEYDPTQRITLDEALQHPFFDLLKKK
Cell division cycle 7-related protein kinase, sequence (O00311 whole entry): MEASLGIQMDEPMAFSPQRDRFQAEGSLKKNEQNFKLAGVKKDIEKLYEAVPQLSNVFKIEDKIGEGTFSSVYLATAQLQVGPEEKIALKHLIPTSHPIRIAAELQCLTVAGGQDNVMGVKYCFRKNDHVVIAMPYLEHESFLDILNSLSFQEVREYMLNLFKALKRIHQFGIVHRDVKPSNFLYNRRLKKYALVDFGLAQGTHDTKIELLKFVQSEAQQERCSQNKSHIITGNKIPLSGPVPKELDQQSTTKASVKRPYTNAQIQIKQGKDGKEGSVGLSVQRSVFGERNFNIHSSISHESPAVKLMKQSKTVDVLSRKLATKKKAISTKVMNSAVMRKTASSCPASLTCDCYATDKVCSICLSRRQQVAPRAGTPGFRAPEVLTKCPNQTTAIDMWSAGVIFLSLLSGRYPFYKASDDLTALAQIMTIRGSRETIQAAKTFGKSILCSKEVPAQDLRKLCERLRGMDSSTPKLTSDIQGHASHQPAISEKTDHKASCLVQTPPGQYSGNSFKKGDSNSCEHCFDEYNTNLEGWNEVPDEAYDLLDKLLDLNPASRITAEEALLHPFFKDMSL

SMILES | Ki [1] | Ki [2] | Ki [3] | Ki [4] | Ki [5] | Ki [6] | Ki [7] | Ki [8] | EC50 [9] | EC50 [10] | IC50 [11] | EC50 [12] | IC50 [13] | AC50 [14] | CC50 [15]
COCCN(CCOC)c1cc(-c2c[nH]c3ncccc23)cc(Cl)n1 | 1 µM (active) | 0.501 µM (active) | 2.51 µM (active) | 0.01 µM (active) | 1.26 µM (active) | 0.01 µM (active) | 0.02 µM (active) | 0.251 µM (active) | – | – | – | – | – | – | –
CN(C)c1ccc(/C=C2/C[N+](C)(C)C/C(=C/c3ccc(N(C)C)cc3)C2=O)cc1 | – | – | – | – | – | – | – | – | > 20 µM (inactive) | 1.6 µM (active) | 6.59 µM (active) | 0.6 µM (active) | 82.9 µM (active) | 11.9 µM (active) | 100 µM (active)
